Assay results taken from ChEMBL document CHEMBL5230136, “A review: Biologically active 3,4-heterocycle-fused coumarins” (Eur J Med Chem, 2021).

Assays:
[1] = molecular target: Dopamine receptors; D2 & D4 (Homo sapiens, UniProt P14416+P21917); test: Binding affinity to human D2/D4 receptor assessed as inhibition constant; format: protein assay
Ehrlich = test: cells; details: Mus musculus
Description: Anticancer activity against mouse EAC cells assessed as reduction in cell viability

Staphylococcus aureus [2] = test: Antibacterial activity against Staphylococcus aureus assessed as zone of inhibition; format: functional
Bacillus cereus [3] = test: Antibacterial activity against Bacillus cereus assessed as zone of inhibition; format: functional
Serratia marcescens [4] = test: Antibacterial activity against Serratia marcescens assessed as zone of inhibition; format: functional
Proteus mirabilis = test: Antibacterial activity against Proteus mirabilis assessed as zone of inhibition; format: functional
Aspergillus ochraceus = test: Antifungal activity against Aspergillus ochraceus assessed as zone of inhibition; format: functional
Penicillium chrysogenum = test: Antifungal activity against Penicillium chrysogenum assessed as zone of inhibition; format: functional
[5] = tested on: Xanthomonas citri pv. malvacearum; test: Antibacterial activity against Xanthomonas citri pv. malvacearum assessed as reduction in bacterial growth; format: functional; design: concentration or dose not given beside the values
Fusarium verticillioides = test: Antifungal activity against Fusarium verticillioides assessed as reduction in fungal growth; format: functional; design: concentration or dose not given beside the values
Rhizoctonia solani = test: Antifungal activity against Rhizoctonia solani assessed as reduction in fungal growth; format: functional; design: concentration or dose not given beside the values
Erysiphe necator = test: Antifungal activity against powdery mildew Erysiphe necator assessed as reduction in fungal growth; format: functional; design: concentration or dose not given beside the values
Phytophthora = test: Antimicrobial activity against Phytophthora assessed as reduction in microbial growth; format: functional; design: concentration or dose not given beside the values
Botrytis cinerea = test: Antifungal activity against gray mold Botrytis cinerea assessed as reduction in fungal growth; format: functional; design: concentration or dose not given beside the values
[6] = Antioxidant activity assessed as DPPH radical scavenging activity; format: functional
Staphylococcus aureus [7] = test: Antibacterial activity against Staphylococcus aureus assessed as zone of inhibition at 20 mg/ml; format: functional; details: read-out: IZ
Bacillus cereus [8] = test: Antibacterial activity against Bacillus cereus assessed as zone of inhibition at 20 mg/ml; format: functional; details: read-out: IZ
Escherichia coli = test: Antibacterial activity against Escherichia coli assessed as zone of inhibition at 20 mg/ml; format: functional; details: read-out: IZ
Pseudomonas aeruginosa = test: Antibacterial activity against Pseudomonas aeruginosa assessed as zone of inhibition at 20 mg/ml; format: functional; details: read-out: IZ
Serratia marcescens [9] = test: Antibacterial activity against Serratia marcescens assessed as zone of inhibition at 20 mg/ml; format: functional; details: read-out: IZ
Micrococcus luteus = test: Antibacterial activity against Micrococcus luteus assessed as zone of inhibition at 20 mg/ml; format: functional; details: read-out: IZ
Candida albicans = test: Antifungal activity against Candida albicans assessed as zone of inhibition at 20 mg/ml; format: functional; details: read-out: IZ
Trichophyton rubrum = test: Antifungal activity against Trichophyton rubrum assessed as zone of inhibition at 20 mg/ml; format: functional; details: read-out: IZ
Aspergillus flavus = test: Antifungal activity against Aspergillus flavus assessed as zone of inhibition at 20 mg/ml; format: functional; details: read-out: IZ
Fusarium oxysporum = test: Antifungal activity against Fusarium oxysporum assessed as zone of inhibition at 20 mg/ml; format: functional; details: read-out: IZ
Scopulariopsis = test: Antifungal activity against Scopulariopsis assessed as zone of inhibition at 20 mg/ml; format: functional; details: read-out: IZ
Geotrichum candidum = test: Antifungal activity against Geotrichum candidum assessed as zone of inhibition at 20 mg/ml; format: functional; details: read-out: IZ

Cc1ccc2c3c(c(=O)oc2c1)CN(Cc1ccc(F)cc1)CC3
Ki [1]: 773 nM

O=c1oc2ccccc2c2nc(/C=C/c3ccccc3)cc(-c3ccccc3)c12
IC50 (Ehrlich): 120 nM

CC1c2c(c3ccccc3oc2=O)Oc2ncn(C)c(=N)c21 (stereo not given)
inhibition zone (IZ) (Staphylococcus aureus [2]): 18 mm | inhibition zone (IZ) (Bacillus cereus [3]): 17 mm | inhibition zone (IZ) (Serratia marcescens [4]): 19 mm | inhibition zone (IZ) (Proteus mirabilis): 19 mm | inhibition zone (IZ) (Aspergillus ochraceus): 19 mm | inhibition zone (IZ) (Penicillium chrysogenum): 15 mm

O=c1oc2c(ccc3ccccc32)c2c1C(c1ccccc1)NC(c1ccccc1)C2 (stereo not given)
Activity [5]: 9% | Activity (Fusarium verticillioides): 18% | Activity (Rhizoctonia solani): 30% | Activity (Erysiphe necator): 68% | Activity (Phytophthora): 83% | Activity (Botrytis cinerea): 32%

CC(=O)N1C(c2ccccc2)Cc2c(c(=O)oc3c2ccc2ccccc23)C1c1ccccc1 (stereo not given)
Activity [5]: 9% | Activity (Fusarium verticillioides): 6% | Activity (Rhizoctonia solani): 2% | Activity (Erysiphe necator): 0% | Activity (Phytophthora): 0% | Activity (Botrytis cinerea): 21%

CC1C(C#N)=C(N)Oc2c1c(=O)oc1ccccc21 (stereo not given)
inhibition zone (IZ) (Staphylococcus aureus [2]): 18 mm | inhibition zone (IZ) (Bacillus cereus [3]): 19 mm | inhibition zone (IZ) (Serratia marcescens [4]): 18 mm | inhibition zone (IZ) (Proteus mirabilis): 20 mm | inhibition zone (IZ) (Aspergillus ochraceus): 16 mm | inhibition zone (IZ) (Penicillium chrysogenum): 18 mm

O=C1c2ccccc2-c2nc3c(c(-c4ccccc4)c21)c(=O)oc1ccccc13
IC50 (Ehrlich): 130 nM

O=c1oc2ccccc2c2c1C(c1ccc(Cl)cc1)c1c(ncn3nc(CCl)nc13)O2 (stereo not given)
inhibition zone (IZ) (Staphylococcus aureus [2]): 23 mm | inhibition zone (IZ) (Bacillus cereus [3]): 22 mm | inhibition zone (IZ) (Serratia marcescens [4]): 23 mm | inhibition zone (IZ) (Proteus mirabilis): 22 mm | inhibition zone (IZ) (Aspergillus ochraceus): 19 mm | inhibition zone (IZ) (Penicillium chrysogenum): 19 mm

O=c1[nH]cc(F)c(=O)[nH]1 [FLUOROURACIL]
IC50 (Ehrlich): 380 nM

COc1ccc2c3c(c(=O)oc2c1)CN(CCc1ccccc1)CC3
Ki [1]: 734 nM

CN1CCN(Cc2[se]c3c(=O)oc4ccccc4c3c2Br)CC1
IC50 [6]: 87000 nM

NNC(=O)c1sc2c(c1N)c(=O)oc1ccccc12
zone of inhibition at 20000 µg/mL (Staphylococcus aureus [7]): 10 mm | zone of inhibition at 20000 µg/mL (Bacillus cereus [8]): 0 mm | zone of inhibition at 20000 µg/mL (Escherichia coli): 0 mm | zone of inhibition at 20000 µg/mL (Pseudomonas aeruginosa): 10 mm | zone of inhibition at 20000 µg/mL (Serratia marcescens [9]): 11 mm | zone of inhibition at 20000 µg/mL (Micrococcus luteus): 0 mm | zone of inhibition at 20000 µg/mL (Candida albicans): 14 mm | zone of inhibition at 20000 µg/mL (Trichophyton rubrum): 0 mm | zone of inhibition at 20000 µg/mL (Aspergillus flavus): 10 mm | zone of inhibition at 20000 µg/mL (Fusarium oxysporum): 16 mm | zone of inhibition at 20000 µg/mL (Scopulariopsis): 13 mm | zone of inhibition at 20000 µg/mL (Geotrichum candidum): 13 mm

COc1ccc(C2SCCNc3c2c(=O)oc2ccccc32)c(O)c1 (stereo not given)
IC50 [6]: 120000 nM

COc1ccc2c3c(c(=O)oc2c1)CN(Cc1ccc(Cl)c(Cl)c1)CC3
Ki [1]: 95 nM

COc1ccc2c3c(c(=O)oc2c1)CN(Cc1ccc(F)cc1)CC3
Ki [1]: 1350 nM

CCOC(=O)c1sc2c(c1NC(=O)CNc1ccc(C)cc1)c(=O)oc1ccccc12
zone of inhibition at 20000 µg/mL (Staphylococcus aureus [7]): 0 mm | zone of inhibition at 20000 µg/mL (Bacillus cereus [8]): 0 mm | zone of inhibition at 20000 µg/mL (Escherichia coli): 0 mm | zone of inhibition at 20000 µg/mL (Pseudomonas aeruginosa): 0 mm | zone of inhibition at 20000 µg/mL (Serratia marcescens [9]): 0 mm | zone of inhibition at 20000 µg/mL (Micrococcus luteus): 0 mm | zone of inhibition at 20000 µg/mL (Candida albicans): 13 mm | zone of inhibition at 20000 µg/mL (Trichophyton rubrum): 0 mm | zone of inhibition at 20000 µg/mL (Aspergillus flavus): 0 mm | zone of inhibition at 20000 µg/mL (Fusarium oxysporum): 0 mm | zone of inhibition at 20000 µg/mL (Scopulariopsis): 0 mm | zone of inhibition at 20000 µg/mL (Geotrichum candidum): 8 mm

COc1ccc(CN2CCc3c(c(=O)oc4cc(OC)ccc34)C2)cc1
Ki [1]: 69 nM

CC(=O)N1C(c2ccccc2)Cc2c(c(=O)oc3cc(C)ccc23)C1c1ccccc1 (stereo not given)
Activity [5]: 18% | Activity (Fusarium verticillioides): 10% | Activity (Rhizoctonia solani): 0% | Activity (Erysiphe necator): 52% | Activity (Phytophthora): 83% | Activity (Botrytis cinerea): 11%

CCOC(=O)c1sc2c(c1NC(=O)CNc1ccccc1)c(=O)oc1ccccc12
zone of inhibition at 20000 µg/mL (Staphylococcus aureus [7]): 0 mm | zone of inhibition at 20000 µg/mL (Bacillus cereus [8]): 0 mm | zone of inhibition at 20000 µg/mL (Escherichia coli): 0 mm | zone of inhibition at 20000 µg/mL (Pseudomonas aeruginosa): 0 mm | zone of inhibition at 20000 µg/mL (Serratia marcescens [9]): 0 mm | zone of inhibition at 20000 µg/mL (Micrococcus luteus): 0 mm | zone of inhibition at 20000 µg/mL (Candida albicans): 13 mm | zone of inhibition at 20000 µg/mL (Trichophyton rubrum): 10 mm | zone of inhibition at 20000 µg/mL (Aspergillus flavus): 12 mm | zone of inhibition at 20000 µg/mL (Fusarium oxysporum): 0 mm | zone of inhibition at 20000 µg/mL (Scopulariopsis): 10 mm | zone of inhibition at 20000 µg/mL (Geotrichum candidum): 11 mm

O=c1oc2ccccc2c2nc3c(c(-c4ccccc4)c12)CCC/C3=C\c1ccccc1
IC50 (Ehrlich): 130 nM

O=c1oc2ccccc2c2nc(-c3ccccc3)cc(-c3ccc([N+](=O)[O-])cc3)c12
IC50 (Ehrlich): 120 nM

CC1c2c(c3ccccc3oc2=O)Oc2ncn3nc(CCl)nc3c21 (stereo not given)
inhibition zone (IZ) (Staphylococcus aureus [2]): 20 mm | inhibition zone (IZ) (Bacillus cereus [3]): 22 mm | inhibition zone (IZ) (Serratia marcescens [4]): 21 mm | inhibition zone (IZ) (Proteus mirabilis): 20 mm | inhibition zone (IZ) (Aspergillus ochraceus): 18 mm | inhibition zone (IZ) (Penicillium chrysogenum): 19 mm

CN1C(c2ccccc2)Cc2c(c(=O)oc3c2ccc2ccccc23)C1c1ccccc1 (stereo not given)
Activity [5]: 9% | Activity (Fusarium verticillioides): 14% | Activity (Rhizoctonia solani): 0% | Activity (Erysiphe necator): 8% | Activity (Phytophthora): 0% | Activity (Botrytis cinerea): 0%

COc1ccc(C2SCCNc3c2c(=O)oc2cc(O)ccc32)c(O)c1 (stereo not given)
IC50 [6]: 120000 nM

CC1(C)S[C@@H]2[C@H](NC(=O)[C@H](N)c3ccccc3)C(=O)N2[C@H]1C(=O)O [AMPICILLIN]
inhibition zone (IZ) (Staphylococcus aureus [2]): 26 mm | inhibition zone (IZ) (Bacillus cereus [3]): 25 mm | inhibition zone (IZ) (Serratia marcescens [4]): 26 mm | inhibition zone (IZ) (Proteus mirabilis): 27 mm

CCc1cccc(-n2c(N)c(C#N)c3c(c(=O)oc4ccc5ccccc5c43)c2=O)c1
IC50 (Ehrlich): 246000 nM

O=C(N[C@H](CO)[C@H](O)c1ccc([N+](=O)[O-])cc1)C(Cl)Cl [CHLORAMPHENICOL]
zone of inhibition at 20000 µg/mL (Staphylococcus aureus [7]): 18 mm | zone of inhibition at 20000 µg/mL (Bacillus cereus [8]): 22 mm | zone of inhibition at 20000 µg/mL (Escherichia coli): 18 mm | zone of inhibition at 20000 µg/mL (Pseudomonas aeruginosa): 18 mm | zone of inhibition at 20000 µg/mL (Serratia marcescens [9]): 20 mm | zone of inhibition at 20000 µg/mL (Micrococcus luteus): 20 mm | zone of inhibition at 20000 µg/mL (Candida albicans): 20 mm | zone of inhibition at 20000 µg/mL (Trichophyton rubrum): 36 mm | zone of inhibition at 20000 µg/mL (Aspergillus flavus): 44 mm | zone of inhibition at 20000 µg/mL (Fusarium oxysporum): 28 mm | zone of inhibition at 20000 µg/mL (Scopulariopsis): 20 mm | zone of inhibition at 20000 µg/mL (Geotrichum candidum): 24 mm

CC1c2c(c3ccccc3oc2=O)Oc2ncn3nc(-c4ccccc4)nc3c21 (stereo not given)
inhibition zone (IZ) (Staphylococcus aureus [2]): 20 mm | inhibition zone (IZ) (Bacillus cereus [3]): 22 mm | inhibition zone (IZ) (Serratia marcescens [4]): 20 mm | inhibition zone (IZ) (Proteus mirabilis): 19 mm | inhibition zone (IZ) (Aspergillus ochraceus): 19 mm | inhibition zone (IZ) (Penicillium chrysogenum): 17 mm

Cc1ccc2c3c(c(=O)oc2c1)C(c1ccccc1)NC(c1ccccc1)C3 (stereo not given)
Activity [5]: 0% | Activity (Fusarium verticillioides): 20% | Activity (Rhizoctonia solani): 13% | Activity (Erysiphe necator): 38% | Activity (Phytophthora): 83% | Activity (Botrytis cinerea): 0%

CC1C2=C(N=CNC2N)Oc2c1c(=O)oc1ccccc21 (stereo not given)
inhibition zone (IZ) (Staphylococcus aureus [2]): 21 mm | inhibition zone (IZ) (Bacillus cereus [3]): 22 mm | inhibition zone (IZ) (Serratia marcescens [4]): 20 mm | inhibition zone (IZ) (Proteus mirabilis): 19 mm | inhibition zone (IZ) (Aspergillus ochraceus): 14 mm | inhibition zone (IZ) (Penicillium chrysogenum): 12 mm

COc1ccc2c3c(c(=O)oc2c1)CN(Cc1ccc(Cl)cc1)CC3
Ki [1]: 667 nM

Cc1ccc2c3c(c(=O)oc2c1)C(c1ccccc1)N(C)C(c1ccccc1)C3 (stereo not given)
Activity [5]: 0% | Activity (Fusarium verticillioides): 22% | Activity (Rhizoctonia solani): 15% | Activity (Erysiphe necator): 0% | Activity (Phytophthora): 0% | Activity (Botrytis cinerea): 0%

COc1ccc2c3c(c(=O)oc2c1)CN(Cc1ccccc1Cl)CC3
Ki [1]: 171 nM
